This note sets out measurements from patent publication US11547842B2, “Methods for cancer treatment” (The Board of Trustees of the Leland Stanford Junior …, priority 2013, dated 2023).

The test system of data set [1] is mycosis fungoides. The settings on record: human, in vivo.
Data set [2] relates to mycosis fungoides. The experiment in a line: Therapy history of patient 3 before SD-101 (clinical response, tolerability).

Like-named read-outs stand apart in the source and are kept apart here.

Consider “SGN-35: agent of the SGN-35 clinical trial in which patient 3 participated”, for which, in the data set with mycosis fungoides [1], the “reason the therapy was stopped (toxicity)” value is recorded as “too much toxicity”.

For the molecule `C=C(c1ccc(C(=O)O)cc1)c1cc2c(cc1C)C(C)(C)CCC2(C)C` [Targretin], the “reason the therapy was stopped (toxicity)” value with mycosis fungoides [2] is given as “hypertriglyceridemia”. In the data set with mycosis fungoides [2] (Zolinza with 12 Gy TSEBT, Targretin 300 mg daily, SGN-35 clinical trial), the response to therapy entry was “partial response in the skin”.
